# Entries after “also recorded” stand apart in the source; their conditions may differ.
# What was measured:
# [1] = tested on: viral RNA polymerase [病毒RNA聚合酶]; conditions: adenosine analogue; cited from earlier work
# [2] = tested on: Zika virus [寨卡病毒]; conditions: cited from earlier work
# [3] = biological target: NS5 methyltransferase [NS5甲基转移酶]; conditions: NS5 methyltransferase inhibitors; cited from earlier work
# [4] = tested on: ZIKV MR766; experiment: Plaque assay, ZIKV MR766 in Vero cells; type: cell-based; conditions: Zika virus, 96 h
# [5] = tested on: ZIKV SZ-WIV01; experiment: Plaque assay, ZIKV SZ-WIV01 in Vero cells; type: cell-based, Zika virus; conditions: for EC50: Zika virus, Vero, 96 h
# [6] = biological target: T1, RNA-dependent RNA polymerase (RdRp) of ZIKV NS5 [ZIKV的RNA依赖的RNA聚合酶(RdRp)] (Zika virus, UniProt Q32ZE1); experiment: ZIKV NS5 RdRp activity, Gluc reporter in NS5-expressing HEK-293T cells; type: cell-based; conditions: 24 h
# T1 construct: 1μg ZIKV NS5载体共转染到HEK-293T细胞中; expressed in transfected cells; host or cells: HEK-293T
# T1 sequence (Q32ZE1 2517-3419): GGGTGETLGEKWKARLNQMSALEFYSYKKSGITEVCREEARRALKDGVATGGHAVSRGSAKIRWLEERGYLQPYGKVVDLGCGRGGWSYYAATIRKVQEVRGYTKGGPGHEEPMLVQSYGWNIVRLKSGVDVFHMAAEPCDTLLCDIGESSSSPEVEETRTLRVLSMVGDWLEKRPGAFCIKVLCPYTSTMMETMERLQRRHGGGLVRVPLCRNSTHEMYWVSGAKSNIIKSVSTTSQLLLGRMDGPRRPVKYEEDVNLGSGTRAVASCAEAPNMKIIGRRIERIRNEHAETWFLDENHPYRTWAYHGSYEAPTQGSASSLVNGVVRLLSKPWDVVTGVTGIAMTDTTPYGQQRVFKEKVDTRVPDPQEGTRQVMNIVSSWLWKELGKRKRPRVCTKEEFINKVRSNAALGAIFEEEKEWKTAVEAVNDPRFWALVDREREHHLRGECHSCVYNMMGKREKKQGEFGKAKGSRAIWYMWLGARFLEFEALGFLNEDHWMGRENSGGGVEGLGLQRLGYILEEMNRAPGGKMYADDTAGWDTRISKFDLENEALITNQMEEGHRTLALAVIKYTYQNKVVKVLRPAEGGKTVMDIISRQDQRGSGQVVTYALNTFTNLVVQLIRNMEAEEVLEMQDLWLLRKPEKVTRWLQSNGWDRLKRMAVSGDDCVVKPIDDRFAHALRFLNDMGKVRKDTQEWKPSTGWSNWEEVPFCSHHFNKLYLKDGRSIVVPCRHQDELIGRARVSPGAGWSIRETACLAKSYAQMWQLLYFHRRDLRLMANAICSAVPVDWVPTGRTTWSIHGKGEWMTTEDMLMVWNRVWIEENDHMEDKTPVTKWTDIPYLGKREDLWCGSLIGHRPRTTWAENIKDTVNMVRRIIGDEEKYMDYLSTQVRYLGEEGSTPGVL
# [7] = MTT cytotoxicity in Vero cells; type: cell-based, African green monkey; conditions: monkey
# [8] = tested on: Vero cells [Vero细胞]; experiment: MTT cytotoxicity in Vero cells; type: cell-based, African green monkey; conditions: Vero CC50 relative to anti-ZIKV EC50; strain not stated
# [9] = tested on: ZIKV SZ-WIV01; experiment: Adsorption (binding) assay, qRT-PCR of ZIKV on Vero cell surface; type: cell-based, Zika virus; conditions: ZIKV SZ-WIV01 MOI=1, 50 μM, 4°C, 1 h, vs DMSO
# [10] = tested on: ZIKV; experiment: qRT-PCR of ZIKV replication in A549 cells; type: cell-based, Zika virus; conditions: human A549 cells, 0.4-50 μM
# [11] = tested on: ZIKV SZ-WIV01; experiment: qRT-PCR of ZIKV RNA in supernatant of infected Vero cells; type: cell-based, Zika virus; conditions: ZIKV SZ-WIV01 500 PFU, 3.125-25 μM, 48 h
# [12] = tested on: ZIKV SZ-WIV01; experiment: Time-of-addition assay, qRT-PCR, Vero cells; type: cell-based, Zika virus; conditions: ZIKV SZ-WIV01 MOI=1, 50 μM
# [13] = tested on: ZIKV; experiment: Internalization of ZIKV into host cells; type: cell-based, Zika virus
# [14] = tested on: ZIKV; experiment: qRT-PCR of ZIKV replication in Huh-7 cells; type: cell-based, Zika virus; conditions: human Huh-7 cells, 0.4-50 μM
# [15] = tested on: ZIKV NS5; experiment: Western blot of NS5 expression in HEK-293T cells; type: cell-based, Zika virus; conditions: 24 h
# [16] = tested on: AXL; experiment: Flow cytometry of AXL expression on Vero cell surface; type: cell-based, African green monkey; conditions: Vero cells, 50 μM, 37°C 1 h, then ZIKV SZ-WIV01 MOI=1, 1 h
# [17] = tested on: ZIKV SZ-WIV01; experiment: Immunofluorescence of ZIKV E protein positive Vero cells; type: cell-based, Zika virus; conditions: ZIKV SZ-WIV01 MOI=1, 50 μM, 48 h, vs DMSO
# [18] = tested on: Gluc luciferase [荧光素酶Gluc]; experiment: Gluc activity in HEK-293T cells expressing only Gluc (counter-test); type: cell-based
# [19] = tested on: ZIKV MR766 E protein [ZIKV E蛋白]; experiment: Western blot of ZIKV E protein expression; type: cell-based, Zika virus; conditions: 48 h
# [20] = tested on: Zika virus [寨卡病毒]; conditions: cited from earlier work; remark: listed apart in the source
structure (smiles),measurement,setting,value
Nc1ncnc2c([C@@H]3N[C@H](CO)[C@@H](O)[C@H]3O)c[nH]c12 [BCX4430],inhibition of viral RNA polymerase function,[1],能抑制病毒RNA聚合酶的功能
Cc1c(-c2ccc(-c3ccccc3F)cc2)nc2ccc(F)cc2c1C(=O)O [Brequinar],anti-Zika virus activity,[2],具有抗寨卡病毒活性
"Nc1ncnc2c1ncn2[C@@H]1O[C@H](CSCC[C@H](N)C(=O)O)[C@@H](O)[C@H]1O [S-腺苷基-同型半胱氨酸, S-adenosyl-L-homocysteine]",IC50,[3],0.43 µM
"NC(=O)c1ncn([C@@H]2O[C@H](CO)[C@@H](O)[C@H]2O)n1 [利巴韦林, reference compound]",EC50,[4],58.8 ± 1.86 µM
same,anti-Zika virus activity,[2],具有抗寨卡病毒活性
same,EC50,[5],47.5 ± 4.73 µM
"COc1cc(O)c(C(CC(C)C)c2c(O)cc(OC)c(C(=O)C(C)C)c2O)c(O)c1C(=O)C(C)C [大叶桉酮G, Eucalyprobusone G]",inhibition of NS5-induced increase in Gluc activity,[6]; 10 μmol/L,几乎完全抑制
same,inhibition of Gluc activity in NS5-expressing cells (RdRp activity),[6]; 1.25-10 μM,以剂量依赖性的方式抑制了表达NS5的细胞中的荧光素酶Gluc的活性; also recorded: 可以抑制NS5中RdRp结构域的活性; also recorded: 呈剂量依赖型方式降低Gluc的活性
same,EC50,[4],0.43 ± 0.08 µM
same,selectivity ratio,"[7]; vero cells, Vero CC50 relative to anti-ZIKV EC50, strain not stated, read-out: therapeutic index",> 49.5
same,CC50 at 96 h,"[7]; MTT, Vero cells, 4 days",> 500 µM
same,therapeutic index,[8],> 49.5
same,ZIKV adsorption (binding) to host cells,[9],抑制了ZIKV的吸附; also recorded: 抑制ZIKV与宿主细胞的结合
same,inhibition of ZIKV replication,[10],以剂量依赖型方式抑制两种人源细胞中ZIKV的复制
same,inhibition of ZIKV RNA production,[11],以剂量依赖性的方式抑制ZIKV RNA的产生
same,stage of viral life cycle acted on,[12]; added 0-12 h post infection,主要抑制ZIKV RNA的合成
same,inhibition of ZIKV replication when added 6 h post infection,[12]; supernatant at 24 h,显著抑制了ZIKV的复制
same,internalization of ZIKV into host cells,[13],抑制ZIKV与宿主细胞的结合和内化
same,inhibition of ZIKV replication,[14],以剂量依赖型方式抑制两种人源细胞中ZIKV的复制
same,effect on NS5 expression,[15],不影响NS5的表达; also recorded: 对NS5的表达没有影响
same,AXL expression,[16],不影响AXL的表达
same,inhibition of ZIKV-induced plaque formation,"[5]; Vero cells, 3.125-25 μM, vs DMSO",以剂量依赖方式抑制ZIKV感染诱导的噬斑形成
same,EC50,[5],10.1 ± 3.84 µM
same,anti-Zika virus activity compared with positive control ribavirin,"[5]; plaque assay, ZIKV SZ-WIV01 and ZIKV MR766",优于阳性对照药利巴韦林; also recorded: 显著高于阳性对照药利巴韦林
same,ZIKV E protein positive cells (immunofluorescence),[17],ZIKV E蛋白阳性细胞显著减少
same,effect on Gluc activity in cells expressing only Gluc,[18],对荧光素酶的活性没有影响; also recorded: 对Gluc的活性没有影响
same,expression of ZIKV E protein (Western blot),"[19]; ZIKV MR766, 2 μM or higher",几乎完全抑制了E蛋白的表达
same,"expression of ZIKV E protein (Western blot), concentration dependence","[19]; ZIKV MR766, 0.08-50 μM","随着大叶桉酮G浓度的增加,ZIKV E蛋白的表达逐渐被抑制"
Cc1ccc(C(=O)Nc2ccc(S(=O)(=O)O)c3cc(S(=O)(=O)O)cc(S(=O)(=O)O)c23)cc1NC(=O)c1cccc(NC(=O)Nc2cccc(C(=O)Nc3cc(C(=O)Nc4ccc(S(=O)(=O)O)c5cc(S(=O)(=O)O)cc(S(=O)(=O)O)c45)ccc3C)c2)c1 [苏拉明],effect on Zika virus binding and attachment to host cells,[20],可以影响寨卡病毒的结合以及与宿主细胞的附着
"Nc1ncnc2c1ncn2[C@@H]1O[C@H](C[C@@H](N)CC[C@H](N)C(=O)O)[C@@H](O)[C@H]1O [西奈芬净, Sinefungin]",IC50,[3],1.18 µM
COc1c(C)c2c(c(O)c1C/C=C(\C)CCC(=O)O)C(=O)OC2 [麦考酚酸],anti-Zika virus activity,[2],具有抗寨卡病毒活性
